Results as given in patent US9302988B2, “Fluoromethyl-substituted pyrrole carboxamides” (GRÜNENTHAL GMBH, priority 2012, dated 2016).

Biological target: T1, Human CaV2.2 channels (Homo sapiens, UniProt Q00975)
T1 construct: expressed in transfected cells
Test: Fluorescent assay for CaV2.2 channels using potassium depolarization to induce channel opening (FLIPR, Fluo-4)
Type: cell-based
Details: 3 μM test compound, 30 mM KCl, HEK293 cells stably expressing human CaV2.2; read-out: %-Inhib (CaV2.2) @3 μM @30 mM KCl
How it was run: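 HEK293 cells stably co-expressing CaV2.2 with α2δ and β subunits plus Kir2.3 were Fluo-4 loaded, then preincubated 15 min at 25 °C with compound in 30 mM KCl buffer, pH 7.4. Depolarization was by adding buffer containing 210 mM KCl. Inhibition was taken from baseline-normalized peak fluorescence amplitude (ex 480/em 535 nm).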

T1 sequence (Q00975 whole entry): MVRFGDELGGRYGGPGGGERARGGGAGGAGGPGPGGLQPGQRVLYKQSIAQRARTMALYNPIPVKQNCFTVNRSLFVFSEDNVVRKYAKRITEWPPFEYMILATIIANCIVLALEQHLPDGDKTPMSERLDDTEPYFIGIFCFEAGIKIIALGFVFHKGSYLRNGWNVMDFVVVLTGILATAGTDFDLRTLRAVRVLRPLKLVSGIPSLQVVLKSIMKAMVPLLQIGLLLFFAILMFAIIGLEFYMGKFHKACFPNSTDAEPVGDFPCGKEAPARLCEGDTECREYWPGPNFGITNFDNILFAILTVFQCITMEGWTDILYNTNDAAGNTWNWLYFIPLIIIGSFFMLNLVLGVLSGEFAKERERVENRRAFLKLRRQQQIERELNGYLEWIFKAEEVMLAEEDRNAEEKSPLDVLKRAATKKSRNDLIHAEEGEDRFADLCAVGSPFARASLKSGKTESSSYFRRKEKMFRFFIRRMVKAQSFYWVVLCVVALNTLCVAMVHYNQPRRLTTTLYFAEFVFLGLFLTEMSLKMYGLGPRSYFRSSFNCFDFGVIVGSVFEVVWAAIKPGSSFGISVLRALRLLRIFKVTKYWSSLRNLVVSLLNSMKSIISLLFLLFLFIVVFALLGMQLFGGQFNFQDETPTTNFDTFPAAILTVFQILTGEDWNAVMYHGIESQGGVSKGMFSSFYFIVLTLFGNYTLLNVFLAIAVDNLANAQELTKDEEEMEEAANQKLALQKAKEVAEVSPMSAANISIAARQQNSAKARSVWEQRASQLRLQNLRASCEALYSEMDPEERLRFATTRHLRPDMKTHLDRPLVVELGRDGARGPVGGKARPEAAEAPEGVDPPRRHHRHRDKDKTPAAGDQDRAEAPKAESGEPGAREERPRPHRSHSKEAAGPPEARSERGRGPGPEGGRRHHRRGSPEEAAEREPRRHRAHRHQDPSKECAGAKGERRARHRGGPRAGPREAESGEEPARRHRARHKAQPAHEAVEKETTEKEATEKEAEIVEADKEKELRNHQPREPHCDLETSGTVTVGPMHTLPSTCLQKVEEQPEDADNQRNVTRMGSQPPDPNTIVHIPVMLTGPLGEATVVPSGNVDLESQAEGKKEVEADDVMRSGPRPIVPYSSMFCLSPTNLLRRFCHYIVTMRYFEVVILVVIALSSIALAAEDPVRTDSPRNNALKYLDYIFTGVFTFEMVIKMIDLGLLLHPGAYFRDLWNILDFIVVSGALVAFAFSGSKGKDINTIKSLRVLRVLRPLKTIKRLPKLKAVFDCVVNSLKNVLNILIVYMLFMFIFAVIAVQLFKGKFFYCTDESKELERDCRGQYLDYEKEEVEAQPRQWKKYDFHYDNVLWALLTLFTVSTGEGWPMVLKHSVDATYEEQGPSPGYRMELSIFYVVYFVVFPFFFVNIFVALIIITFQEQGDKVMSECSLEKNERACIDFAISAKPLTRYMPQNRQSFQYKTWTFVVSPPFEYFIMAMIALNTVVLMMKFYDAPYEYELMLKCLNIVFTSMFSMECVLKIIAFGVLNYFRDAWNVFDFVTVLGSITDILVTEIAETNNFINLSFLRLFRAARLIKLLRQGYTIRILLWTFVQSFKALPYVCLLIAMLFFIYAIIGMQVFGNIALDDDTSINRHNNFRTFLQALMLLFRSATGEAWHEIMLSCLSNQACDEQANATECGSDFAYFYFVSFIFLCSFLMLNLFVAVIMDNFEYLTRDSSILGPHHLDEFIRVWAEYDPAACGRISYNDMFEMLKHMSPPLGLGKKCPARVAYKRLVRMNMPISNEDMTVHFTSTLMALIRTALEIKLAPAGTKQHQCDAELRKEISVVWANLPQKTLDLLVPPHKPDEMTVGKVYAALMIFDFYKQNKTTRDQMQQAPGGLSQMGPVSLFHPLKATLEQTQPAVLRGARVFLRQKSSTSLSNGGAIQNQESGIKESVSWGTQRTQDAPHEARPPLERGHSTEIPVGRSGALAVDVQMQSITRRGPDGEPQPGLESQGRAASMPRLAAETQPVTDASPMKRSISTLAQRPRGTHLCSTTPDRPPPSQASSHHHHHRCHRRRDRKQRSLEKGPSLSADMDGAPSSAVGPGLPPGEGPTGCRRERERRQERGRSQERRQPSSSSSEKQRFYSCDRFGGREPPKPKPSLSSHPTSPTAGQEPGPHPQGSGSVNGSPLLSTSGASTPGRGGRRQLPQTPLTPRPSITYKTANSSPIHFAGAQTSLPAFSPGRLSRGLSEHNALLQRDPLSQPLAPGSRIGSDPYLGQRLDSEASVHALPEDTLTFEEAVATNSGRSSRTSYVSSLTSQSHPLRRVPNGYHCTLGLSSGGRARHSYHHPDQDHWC
T1 sequence (P54289 25-1103, further chain): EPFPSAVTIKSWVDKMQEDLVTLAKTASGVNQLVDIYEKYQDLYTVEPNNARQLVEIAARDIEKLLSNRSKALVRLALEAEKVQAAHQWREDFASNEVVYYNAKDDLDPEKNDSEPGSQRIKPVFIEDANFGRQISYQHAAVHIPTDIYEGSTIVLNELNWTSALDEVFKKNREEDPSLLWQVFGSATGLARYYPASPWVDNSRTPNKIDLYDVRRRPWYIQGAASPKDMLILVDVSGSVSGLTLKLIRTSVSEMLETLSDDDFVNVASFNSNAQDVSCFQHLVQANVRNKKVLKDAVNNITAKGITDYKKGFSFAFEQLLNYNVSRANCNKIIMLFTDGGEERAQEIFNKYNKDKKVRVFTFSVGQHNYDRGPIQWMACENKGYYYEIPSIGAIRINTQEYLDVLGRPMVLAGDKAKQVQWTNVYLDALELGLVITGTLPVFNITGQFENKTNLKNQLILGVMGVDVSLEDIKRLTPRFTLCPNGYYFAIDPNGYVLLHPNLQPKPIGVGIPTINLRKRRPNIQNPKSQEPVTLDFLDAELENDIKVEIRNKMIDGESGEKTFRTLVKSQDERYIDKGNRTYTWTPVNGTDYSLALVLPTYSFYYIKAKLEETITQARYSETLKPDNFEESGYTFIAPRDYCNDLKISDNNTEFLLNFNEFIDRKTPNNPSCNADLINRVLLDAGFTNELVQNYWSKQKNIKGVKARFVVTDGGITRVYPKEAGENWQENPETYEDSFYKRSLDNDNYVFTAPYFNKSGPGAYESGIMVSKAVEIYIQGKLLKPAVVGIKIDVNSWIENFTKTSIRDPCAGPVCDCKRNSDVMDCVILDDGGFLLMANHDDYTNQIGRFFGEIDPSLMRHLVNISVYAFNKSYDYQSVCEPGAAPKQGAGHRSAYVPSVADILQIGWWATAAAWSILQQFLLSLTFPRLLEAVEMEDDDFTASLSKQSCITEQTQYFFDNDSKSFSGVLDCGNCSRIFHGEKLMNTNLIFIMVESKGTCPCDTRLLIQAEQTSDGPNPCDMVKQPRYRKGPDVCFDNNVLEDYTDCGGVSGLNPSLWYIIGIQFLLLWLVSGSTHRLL
T1 sequence (P54284 whole entry, further chain): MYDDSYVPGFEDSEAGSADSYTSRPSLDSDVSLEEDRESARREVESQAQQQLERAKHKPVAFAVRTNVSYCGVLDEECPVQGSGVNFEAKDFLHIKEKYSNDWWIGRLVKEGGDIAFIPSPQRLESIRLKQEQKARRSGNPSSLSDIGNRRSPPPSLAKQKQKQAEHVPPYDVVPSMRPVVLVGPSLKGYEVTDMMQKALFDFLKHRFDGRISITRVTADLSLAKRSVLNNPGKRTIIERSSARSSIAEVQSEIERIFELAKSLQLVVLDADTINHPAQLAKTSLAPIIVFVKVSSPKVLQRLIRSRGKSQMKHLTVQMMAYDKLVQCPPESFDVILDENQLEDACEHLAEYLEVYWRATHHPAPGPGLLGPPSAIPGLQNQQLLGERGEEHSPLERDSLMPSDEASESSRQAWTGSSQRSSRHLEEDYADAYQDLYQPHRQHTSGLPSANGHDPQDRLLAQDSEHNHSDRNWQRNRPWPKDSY

Row | Compound | inhibition at 3 µM [%]
1 | Cc1c(-c2ccc(Cl)c(F)c2)c(C(=O)N(C)CCS(C)(=O)=O)n(Cc2ccccc2)c1C(F)(F)F [SC-244, 1-Benzyl-3-(4-chloro-3-fluoro-phenyl)-N,4-dimethyl-N-(2-methylsulfonyl-ethyl)-5-(trifluoromethyl)-1H-pyrrole-2-carboxylic acid amide] | 75 to 95
2 | CN(CC1CCCCO1)C(=O)c1c(-c2ccc(Cl)cc2)cc(C(F)(F)F)n1Cc1ccccc1 (stereo not drawn) [SC-202, 1-Benzyl-3-(4-chlorophenyl)-N-methyl-N-(tetrahydro-pyran-2-yl-methyl)-5-(trifluoromethyl)-1H-pyrrole-2-carboxylic acid amide] | 75 to 95
3 | Cc1c(-c2ccc(Cl)cc2)c(C(=O)N(C)C(C)C)n(Cc2ccccc2)c1C(F)(F)F [SC-149, 1-Benzyl-3-(4-chlorophenyl)-N-isopropyl-N,4-dimethyl-5-(trifluoromethyl)-1H-pyrrole-2-carboxylic acid amide] | > 95
4 | Cc1c(-c2ccc(F)cc2)c(C(=O)N2CC(F)(F)C2)n(Cc2ccccc2)c1C(F)(F)F [SC-95, [1-Benzyl-3-(4-fluorophenyl)-4-methyl-5-(trifluoromethyl)-1H-pyrrol-2-yl]-(3,3-difluoro-azetidin-1-yl)-methanone] | 75 to 95
5 | CS(=O)(=O)C1CN(C(=O)c2c(-c3ccc(Cl)cc3)cc(C(F)(F)F)n2Cc2ccccc2)C1 [SC-201, [1-Benzyl-3-(4-chlorophenyl)-5-(trifluoromethyl)-1H-pyrrol-2-yl]-(3-methylsulfonyl-azetidin-1-yl)-methanone] | 75 to 95
6 | Cc1c(-c2ccc(Cl)cc2)c(C(=O)N(C)CC(C)(C)CN2CCOCC2)n(Cc2ccccc2)c1C(F)(F)F [SC-118, 1-Benzyl-3-(4-chlorophenyl)-N-(2,2-dimethyl-3-morpholin-4-yl-propyl)-N,4-dimethyl-5-(trifluoromethyl)-1H-pyrrole-2-carboxylic acid amide] | > 95
7 | Cc1nnc(CN(C)C(=O)c2c(-c3ccc(Cl)cc3)cc(C(F)(F)F)n2Cc2ccccc2)o1 [SC-206, 1-Benzyl-3-(4-chlorophenyl)-N-methyl-N-[(5-methyl-[1,3,4]oxadiazol-2-yl)-methyl]-5-(trifluoromethyl)-1H-pyrrole-2-carboxylic acid amide] | 75 to 95
8 | Cc1c(-c2ccc(Cl)cc2)c(C(=O)N(C)CCO)n(Cc2ccccc2)c1C(F)(F)F [SC-24, 1-Benzyl-3-(4-chlorophenyl)-N-(2-hydroxy-ethyl)-N,4-dimethyl-5-(trifluoromethyl)-1H-pyrrole-2-carboxylic acid amide] | > 95
9 | Cc1c(-c2ccc(Cl)cc2)c(C(=O)N2CCOCC2)n(Cc2ccccc2)c1C(F)(F)F [SC-03, [1-Benzyl-3-(4-chlorophenyl)-4-methyl-5-(trifluoromethyl)-1H-pyrrol-2-yl]-morpholin-4-yl-methanone] | > 95
10 | Cc1c(-c2ccc(Cl)cc2)c(C(=O)N(C)CC(C)(C)O)n(Cc2cccc(Cl)c2)c1C(F)(F)F [SC-57, 3-(4-Chlorophenyl)-1-[(3-chlorophenyl)-methyl]-N-(2-hydroxy-2-methyl-propyl)-N,4-dimethyl-5-(trifluoromethyl)-1H-pyrrole-2-carboxylic acid amide] | > 95
11 | Cc1cc(CN(C)C(=O)c2c(-c3ccc(Cl)cc3)c(C)c(C(F)(F)F)n2Cc2ccccc2)on1 [SC-140, 1-Benzyl-3-(4-chlorophenyl)-N,4-dimethyl-N-[(3-methyl-isoxazol-5-yl)-methyl]-5-(trifluoromethyl)-1H-pyrrole-2-carboxylic acid amide] | > 95
12 | Cc1c(-c2ccc(Cl)cc2)c(C(=O)N2CCC(O)C2)n(Cc2ccccc2)c1C(F)(F)F (stereo not drawn) [SC-23, [1-Benzyl-3-(4-chlorophenyl)-4-methyl-5-(trifluoromethyl)-1H-pyrrol-2-yl]-(3-hydroxy-pyrrolidin-1-yl)-methanone] | 75 to 95
13 | Cc1c(-c2ccc(Cl)cc2)c(C(=O)N(C)Cc2cnc(N(C)C)nc2)n(Cc2ccccc2)c1C(F)(F)F [SC-152, 1-Benzyl-3-(4-chlorophenyl)-N-[(2-dimethylamino-pyrimidin-5-yl)-methyl]-N,4-dimethyl-5-(trifluoromethyl)-1H-pyrrole-2-carboxylic acid amide] | > 95
14 | Cc1c(-c2ccc(Cl)cc2)c(C(=O)N2CCNC(=O)C2)n(Cc2cccc(Cl)c2)c1C(F)(F)F [SC-55, 4-[3-(4-Chlorophenyl)-1-[(3-chlorophenyl)-methyl]-4-methyl-5-(trifluoromethyl)-1H-pyrrole-2-carbonyl]-piperazin-2-one] | > 95
15 | Cc1c(-c2ccc(Cl)cc2)c(C(=O)N(C)Cc2cnccn2)n(Cc2ccccc2)c1C(F)(F)F [SC-146, 1-Benzyl-3-(4-chlorophenyl)-N,4-dimethyl-N-(pyrazin-2-yl-methyl)-5-(trifluoromethyl)-1H-pyrrole-2-carboxylic acid amide] | 75 to 95
16 | Cc1c(-c2ccc(Cl)cc2)c(C(=O)N(C)CC2CCCO2)n(Cc2ccccc2)c1C(F)(F)F (stereo not drawn) [SC-134, 1-Benzyl-3-(4-chlorophenyl)-N,4-dimethyl-N-(tetrahydro-furan-2-yl-methyl)-5-(trifluoromethyl)-1H-pyrrole-2-carboxylic acid amide] | > 95
17 | Cc1c(-c2ccc(OC(F)(F)F)cc2)c(C(=O)N(C)CCS(C)(=O)=O)n(Cc2ccccc2)c1C(F)(F)F [SC-236, 1-Benzyl-N,4-dimethyl-N-(2-methylsulfonyl-ethyl)-5-(trifluoromethyl)-3-[4-(trifluoromethyloxy)-phenyl]-1H-pyrrole-2-carboxylic acid amide] | > 95
18 | Cc1c(-c2ccc(Cl)cc2F)c(C(=O)N(C)CCCS(C)(=O)=O)n(Cc2ccccc2)c1C(F)(F)F [SC-161, 1-Benzyl-3-(4-chloro-2-fluoro-phenyl)-N,4-dimethyl-N-(3-methylsulfonyl-propyl)-5-(trifluoromethyl)-1H-pyrrole-2-carboxylic acid amide] | > 95
19 | CN(CCCS(C)(=O)=O)C(=O)c1c(-c2ccc(Cl)cc2)cc(C(F)(F)F)n1Cc1ccccc1 [SC-189, 1-Benzyl-3-(4-chlorophenyl)-N-methyl-N-(3-methylsulfonyl-propyl)-5-(trifluoromethyl)-1H-pyrrole-2-carboxylic acid amide] | > 95
20 | CCOC(=O)C1(N(C)C(=O)c2c(-c3ccc(Cl)cc3)c(C)c(C(F)(F)F)n2Cc2ccccc2)CC1 [SC-52, 1[[1-Benzyl-3-(4-chlorophenyl)-4-methyl-5-(trifluoromethyl)-1H-pyrrole-2-carbonyl]-methyl-amino]-cyclopropane-1-carboxylic acid ethyl ester] | > 95
21 | Cc1c(-c2ccc(Cl)c(F)c2)c(C(=O)N2CCOCC2)n(Cc2ccccc2)c1C(F)(F)F [SC-103, [1-Benzyl-3-(4-chloro-3-fluoro-phenyl)-4-methyl-5-(trifluoromethyl)-1H-pyrrol-2-yl]-morpholin-4-yl-methanone] | 75 to 95
22 | Cc1c(-c2ccc(Cl)cc2)c(C(=O)N(C)C2CCOCC2)n(Cc2ccccc2)c1C(F)(F)F [SC-11, 1-Benzyl-3-(4-chlorophenyl)-N,4-dimethyl-N-tetrahydro-pyran-4-yl-5-(trifluoromethyl)-1H-pyrrole-2-carboxylic acid amide] | > 95
23 | Cc1c(-c2ccc(Cl)cc2)c(C(=O)N2CC[S+]([O-])CC2)n(Cc2ccccc2)c1C(F)(F)F [SC-19, [1-Benzyl-3-(4-chlorophenyl)-4-methyl-5-(trifluoromethyl)-1H-pyrrol-2-yl]-(1-oxo-[1,4]thiazinan-4-yl)-methanone] | > 95
24 | Cc1c(-c2ccc(C(F)(F)F)cc2)c(C(=O)N(C)C2CC2)n(Cc2ccccc2)c1C(F)(F)F [SC-230, 1-Benzyl-N-cyclopropyl-N,4-dimethyl-5-(trifluoromethyl)-3-[4-(trifluoromethyl)-phenyl]-1H-pyrrole-2-carboxylic acid amide] | 40 to 75
25 | Cc1c(-c2ccc(Cl)cc2F)c(C(=O)N[C@H](C)C(C)(C)C)n(Cc2ccccc2)c1C(F)(F)F [SC-158, 1-Benzyl-3-(4-chloro-2-fluoro-phenyl)-4-methyl-5-(trifluoromethyl)-N-[(1R)-1,2,2-trimethyl-propyl]-1H-pyrrole-2-carboxylic acid amide] | 75 to 95
26 | CN(CC1(CO)CC1)C(=O)c1c(-c2ccc(Cl)cc2)cc(C(F)(F)F)n1Cc1ccccc1 [SC-178, 1-Benzyl-3-(4-chlorophenyl)-N-[[1-(hydroxymethyl)-cyclopropyl]-methyl]-N-methyl-5-(trifluoromethyl)-1H-pyrrole-2-carboxylic acid amide] | > 95
27 | Cc1c(-c2ccc(Cl)cc2F)c(C(=O)N(C)CC(C)(C)S(C)(=O)=O)n(Cc2ccccc2)c1C(F)(F)F [SC-168, 1-Benzyl-3-(4-chloro-2-fluoro-phenyl)-N,4-dimethyl-N-(2-methyl-2-methylsulfonyl-propyl)-5-(trifluoromethyl)-1H-pyrrole-2-carboxylic acid amide] | > 95
28 | Cc1c(-c2ccc(Cl)cc2)c(C(=O)N(C)CCC2CCCO2)n(Cc2ccccc2)c1C(F)(F)F (stereo not drawn) [SC-133, 1-Benzyl-3-(4-chlorophenyl)-N,4-dimethyl-N-(2-tetrahydro-furan-2-yl-ethyl)-5-(trifluoromethyl)-1H-pyrrole-2-carboxylic acid amide] | > 95
29 | Cc1c(-c2ccc(F)cc2)c(C(=O)N(C)CC(C)(C)CO)n(Cc2ccccc2)c1C(F)(F)F [SC-218, 1-Benzyl-3-(4-fluorophenyl)-N-(3-hydroxy-2,2-dimethyl-propyl)-N,4-dimethyl-5-(trifluoromethyl)-1H-pyrrole-2-carboxylic acid amide] | > 95
30 | Cc1c(-c2ccc(Cl)cc2F)c(C(=O)N2CCNC(=O)C2)n(Cc2ccccc2)c1C(F)(F)F [SC-61, 4-[1-Benzyl-3-(4-chloro-2-fluoro-phenyl)-4-methyl-5-(trifluoromethyl)-1H-pyrrole-2-carbonyl]-piperazin-2-one] | > 95
